Literature values as cited in patent publication US20050203299A1 (priority 2003, published 2005).

Legend:
serotonin reuptake site = serotonin reuptake site (Homo sapiens, UniProt P31645)
[1] = target: T1, serotonin 5-HT2C receptor (Homo sapiens, UniProt P28335)
T1 sequence (P28335 33-458): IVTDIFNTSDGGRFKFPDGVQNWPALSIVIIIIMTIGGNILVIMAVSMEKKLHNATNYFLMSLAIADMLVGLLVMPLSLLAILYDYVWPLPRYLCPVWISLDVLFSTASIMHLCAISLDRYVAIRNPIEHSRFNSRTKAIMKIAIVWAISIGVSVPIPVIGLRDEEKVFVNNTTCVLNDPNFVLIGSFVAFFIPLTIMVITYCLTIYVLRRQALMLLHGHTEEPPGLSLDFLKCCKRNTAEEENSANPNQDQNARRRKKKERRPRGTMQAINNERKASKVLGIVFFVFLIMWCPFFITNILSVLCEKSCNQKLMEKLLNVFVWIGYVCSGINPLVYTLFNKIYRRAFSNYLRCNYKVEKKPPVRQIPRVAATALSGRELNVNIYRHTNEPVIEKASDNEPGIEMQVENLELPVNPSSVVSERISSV

[2] = target: T2, serotonin 5-HT1A receptor (Homo sapiens, UniProt P08908)
T2 sequence (P08908 1-422): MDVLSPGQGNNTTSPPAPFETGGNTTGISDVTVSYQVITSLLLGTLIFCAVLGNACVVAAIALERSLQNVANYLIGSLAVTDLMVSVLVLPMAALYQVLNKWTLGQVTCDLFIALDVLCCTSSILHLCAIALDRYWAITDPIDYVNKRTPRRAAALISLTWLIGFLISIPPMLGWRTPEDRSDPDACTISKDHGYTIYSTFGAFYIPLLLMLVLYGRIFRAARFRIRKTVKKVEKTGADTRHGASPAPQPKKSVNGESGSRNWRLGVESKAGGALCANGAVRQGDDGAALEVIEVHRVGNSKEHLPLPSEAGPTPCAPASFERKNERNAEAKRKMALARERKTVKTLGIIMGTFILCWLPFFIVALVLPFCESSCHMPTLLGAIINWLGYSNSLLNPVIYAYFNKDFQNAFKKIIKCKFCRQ

[3] = target: serotonin 5-HT2A receptor (Homo sapiens, UniProt P28223)
serotonin 5-HT2A receptor, sequence (P28223 whole entry): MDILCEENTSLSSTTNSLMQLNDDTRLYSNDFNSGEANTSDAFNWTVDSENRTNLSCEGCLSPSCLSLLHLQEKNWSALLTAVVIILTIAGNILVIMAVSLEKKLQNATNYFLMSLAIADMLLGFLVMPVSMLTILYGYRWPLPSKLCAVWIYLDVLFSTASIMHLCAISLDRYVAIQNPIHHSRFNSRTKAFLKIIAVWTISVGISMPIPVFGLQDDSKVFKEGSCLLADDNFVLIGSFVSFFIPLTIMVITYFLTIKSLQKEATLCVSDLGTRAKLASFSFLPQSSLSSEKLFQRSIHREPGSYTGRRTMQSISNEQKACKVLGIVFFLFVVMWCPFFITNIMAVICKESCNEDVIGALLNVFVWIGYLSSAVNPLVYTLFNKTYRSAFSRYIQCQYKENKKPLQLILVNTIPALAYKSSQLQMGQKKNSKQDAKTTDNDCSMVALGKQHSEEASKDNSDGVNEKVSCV

histamine H1 receptor = histamine H1 receptor (Homo sapiens, UniProt P35367)
histamine H1 receptor, sequence (P35367 whole entry): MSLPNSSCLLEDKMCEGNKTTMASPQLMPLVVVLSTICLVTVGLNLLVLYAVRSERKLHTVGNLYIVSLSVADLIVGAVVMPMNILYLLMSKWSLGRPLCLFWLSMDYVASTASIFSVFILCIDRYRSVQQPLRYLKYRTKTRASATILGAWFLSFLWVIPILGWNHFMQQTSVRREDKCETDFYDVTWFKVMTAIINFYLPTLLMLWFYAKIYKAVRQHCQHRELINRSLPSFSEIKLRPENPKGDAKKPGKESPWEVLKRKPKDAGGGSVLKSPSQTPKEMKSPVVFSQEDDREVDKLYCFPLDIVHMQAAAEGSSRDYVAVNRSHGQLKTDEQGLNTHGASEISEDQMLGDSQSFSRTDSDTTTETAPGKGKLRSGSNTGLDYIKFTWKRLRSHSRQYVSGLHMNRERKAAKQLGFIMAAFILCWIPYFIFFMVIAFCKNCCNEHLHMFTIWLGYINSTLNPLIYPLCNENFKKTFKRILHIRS

[4] = tested on: cholinergic muscarinic receptors
[5] = prepared by recrystallization from ethanol or by heating aripiprazole hydrate at 80° C.; according to WO 03/26659

serotonin reuptake site, sequence (P31645 whole entry): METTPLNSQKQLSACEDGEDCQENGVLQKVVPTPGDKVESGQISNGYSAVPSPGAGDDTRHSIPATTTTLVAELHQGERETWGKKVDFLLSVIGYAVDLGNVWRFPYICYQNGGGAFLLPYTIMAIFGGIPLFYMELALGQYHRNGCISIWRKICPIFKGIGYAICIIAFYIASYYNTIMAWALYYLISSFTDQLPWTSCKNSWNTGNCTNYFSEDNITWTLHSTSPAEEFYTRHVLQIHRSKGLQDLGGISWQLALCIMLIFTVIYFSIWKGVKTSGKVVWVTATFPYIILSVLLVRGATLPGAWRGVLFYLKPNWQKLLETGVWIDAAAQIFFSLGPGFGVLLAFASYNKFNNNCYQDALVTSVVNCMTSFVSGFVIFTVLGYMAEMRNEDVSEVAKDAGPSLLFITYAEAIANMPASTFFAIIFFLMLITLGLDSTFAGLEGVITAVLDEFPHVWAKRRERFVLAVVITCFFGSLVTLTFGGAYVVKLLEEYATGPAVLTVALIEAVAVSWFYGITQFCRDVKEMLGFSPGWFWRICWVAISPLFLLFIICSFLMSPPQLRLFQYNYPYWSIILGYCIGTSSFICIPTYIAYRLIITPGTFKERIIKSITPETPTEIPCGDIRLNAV

| SMILES | affinity for serotonin reuptake site (serotonin reuptake site) | affinity for serotonin 5-HT2C receptor [1] | affinity for serotonin 5-HT1A receptor [2] | affinity for serotonin 5-HT2A receptor [3] | affinity for α1-adrenergic receptor (α1-adrenergic receptor) | affinity for histamine H1 receptor (histamine H1 receptor) | affinity for cholinergic muscarinic receptors [4] | hygroscopicity [5] |
| --- | --- | --- | --- | --- | --- | --- | --- | --- |
| O=C1CCc2ccc(OCCCCN3CCN(c4cccc(Cl)c4Cl)CC3)cc2N1 [Aripiprazole] | moderate affinity | moderate affinity | high affinity | high affinity | moderate affinity | moderate affinity | no appreciable affinity |  |
| O=C1CCc2ccc(OCCCCN3CCN(c4cccc(Cl)c4Cl)CC3)cc2N1 [anhydride aripiprazole, aripiprazole] |  |  |  |  |  |  |  | significantly hygroscopic |
